Laboratory results as given in patent publication EP0713875B1, “Sulfonamides” (F. Hoffmann-La Roche AG, priority 1994, dated 1996).

Assays:
[1] = tested on: isolierten Aortenringen der Ratte; assay: Inhibition of endothelin-induced contractions in isolated rat aortic rings; format: cell-based, Wistar-Kyoto-Ratten; details: for Kb: Rattus norvegicus, 10 min, endothelium-denuded thoracic aorta rings, 10 min incubation with test compound, cumulative doses of Endothelin-1, text calls the values pA2 = log(DR-1)-log(antagonist concentration), read-out: Dosisverhältnis (Rechtsverschiebung) (converted)
Procedure: II. Hemmung Endothelin-induzierter Kontraktionen an isolierten Aortenringen der Ratte
Aus der Thoraxaorta von erwachsenen Wistar-Kyoto-Ratten wurden Ringe von 5 mm Länge herausgeschnitten. Das Endothel wurde durch leichtes Reiben der Innenfläche entfernt. Jeder Ring wurde bei 37°C in 10 ml Krebs-Henseleit-Lösung unter Begasung mit 95% O2 und 5% CO2 in ein isoliertes Bad eingetaucht. Die isometrische Spannung der Ringe wurde gemessen. Die Ringe wurden auf eine Vorspannung von 3 g gedehnt. Nach 10 Minuten Inkubation mit der Testverbindung oder Vehikel wurden kumulative Dosen von Endothelin-1 zugegeben. Die Aktivität der Testverbindung wurde ermittelt durch die zu beobachtende Rechtsverschiebung der Dosis-Wirkungskurve von Endothelin-1 in gegenwart verschiedener Konzentrationen an Antagonist. Diese Rechtsverschiebung (oder auch "dose ratio", DR) entspricht dabei dem Quotienten aus den EC50-Werten von Endothelin-1 in Gegenwart und in Abwesenheit von Antagonist, wobei der EC50-Wert die für eine halbmaximale Kontraktion erforderliche Endothelin-Konzentration bezeichnet.
Aus der "dose ratio" DR wurde mittels eines Computerprogramms für jede einzelne Dosis-Wirkungskurve der entsprechende PA2-Wert nach untenstehender Gleichung berechnet, welcher ein Mass für die Aktivität der Testverbindung darstellt. pA2 = log(DR-1)-log(Antagonist-Konzentration) [formula]
Die EC50 von Endothelin in Abwesenheit von Testverbindungen ist 0,3 nM.
Die mit Verbindungen der Formel I so erhaltenen Werte für pA2 sind in Tabelle 2 angegeben. Tabelle 2

humanen ETA-Rezeptor = target: T1, humanen ETA-Rezeptor (Homo sapiens, UniProt P25101); assay: Inhibition of endothelin binding at the recombinant ETA receptor (125I-endothelin, membranes of baculovirus-infected insect cells); details: concentration required to inhibit 50% of the specific binding of 125I-Endothelin; incubation 2 h at 20°C or 24 h at 4°C
T1 construct: made in house; host or cells: insect cells (baculovirus expression system); membrane preparation
T1 sequence (P25101 21-427): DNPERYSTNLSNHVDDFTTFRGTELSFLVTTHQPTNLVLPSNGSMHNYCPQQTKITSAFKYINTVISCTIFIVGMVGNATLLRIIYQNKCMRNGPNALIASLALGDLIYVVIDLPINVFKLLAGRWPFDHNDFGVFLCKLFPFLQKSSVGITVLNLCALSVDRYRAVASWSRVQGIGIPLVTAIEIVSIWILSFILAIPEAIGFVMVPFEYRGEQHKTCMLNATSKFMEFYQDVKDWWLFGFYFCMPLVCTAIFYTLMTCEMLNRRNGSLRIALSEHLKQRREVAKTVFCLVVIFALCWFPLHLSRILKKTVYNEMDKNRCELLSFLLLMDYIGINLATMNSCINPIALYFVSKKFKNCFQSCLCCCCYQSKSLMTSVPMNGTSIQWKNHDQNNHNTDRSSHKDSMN
Procedure: I: Hemmung der Endothelin-Bindung am recombinanten ETA-Rezeptor
Baculovirus-infizierte Insektenzellen aus einem 23 l Fermenter werden 60 Stunden nach der Infektion abzentrifugiert (3 000 x g, 15 Minuten, 4°C), in Tris-Puffer (5 mM, pH 7.4, 1 mM MgCl2) resuspendiert und erneut zentrifugiert. Nach erneuter Resuspension und Zentrifugation werden die Zellen in 800 ml des gleichen Puffers suspendiert und bei -120°C eingefroren. Der Aufbruch der Zellen erfolgt beim Auftauen der Suspension in diesem hypotonen Puffergemisch. Nach wiederholtem Gefrier/Auftau-Zyklus wird die Suspension homogenisiert und zentrifugiert (25 000 x g, 15 Minuten, 4°C). Nach Suspension in Tris-Puffer (75 mM, pH 7.4, 25mM MgCl2, 250 mM Saccharose) werden 1 ml Aliquots (Proteingehalt ca. 3.5 mg/ml) bei -85°C aufbewahrt.
Für den Bindungs-Assay werden die eingefrorenen Membranpräparate aufgetaut und nach 10 Minuten Zentrifugieren mit 25000 g bei 20°C in Assay-Puffer (50 mM Tris-Puffer pH 7.4, enthaltend 25 mM MnCl2, 1 mM EDTA und 0,5% Rinderserumalbumin) resuspendiert. […] Die Inkubation wird 2 Stunden bei 20°C oder 24 Stunden bei 4°C durchgeführt. Die Trennung von freiem und Membran-gebundenen Radioliganden wird durch Filtration über Glasfaserfilter vorgenommen.

Compound	Kb [1]	IC50 (humanen ETA-Rezeptor)	EC50 ([1]; endothelin concentration required for half-maximal contraction, without antagonist, read-out: EC50 von Endothelin in Abwesenheit von Testverbindungen)
COc1ccccc1Oc1c(NS(=O)(=O)c2ccc(C)cn2)nc(N2CCOCC2)nc1OCCOC(=O)Nc1ccccn1 [Beispiel 34, Pyridin-2-yl-carbaminsäure 2-[5-(2-methoxy-phenoxy)-6-(5-methyl-pyridin-2-ylsulfonylamino)-2-morpholin-4-yl-pyrimidin-4-yloxy]-ethylester]	0.2 nM	0.3 nM	–
COc1ccccc1Oc1c(NS(=O)(=O)c2ccc(C(C)C)cn2)nc(N2CCOCC2)nc1OCCOC(=O)Nc1ccccn1 [Beispiel 51, Pyridin-2-ylcarbaminsäure 2-[6-(5-isopropylpyridin-2-ylsulfonylamino)-5-(2-methoxy-phenoxy)-2-morpholin-4-yl-pyrimidin-4-yloxy]ethylester]	0.631 nM	0.4 nM	–
Endothelin [reference compound]	–	–	0.3 nM
